Reference: patent US20060141010A1, “Coated preparations that contain at least one hydroformate” (Basf Aktiengesellschaft, priority 2003, published 2006)

System: one-day-old chickens
Experiment: Feeding experiment using coated trisodium hydrogenformate preparations in a standard wheat-soy diet
Assay type: in vivo
Conditions: after 21 days, vs negative control (standard wheat-soy diet)
Method: A feeding experiment was carried out using one-day-old chickens. Trisodium hydrogenformate was coated with 0, 15 and 30% by weight hydrogenated soybean oil. Per dose, 2 repetitions were carried out, and 10 chickens were used in each feeding experiment.
A standard wheat-soy diet was used as negative control. The coated trisodium hydrogenformate preparations were added to the diet in exchange for cellulose (1% in the negative control).
Feeding results compared with the negative control [%] after 21 days.

[1] = 0.4 % by weight trisodium hydrogenformate in diet
[2] = 0.8 % by weight trisodium hydrogenformate in diet

## O=CO.O=C[O-].O=C[O-].O=C[O-].[Na+].[Na+].[Na+] [trisodium hydrogenformate]
[1]
  FCR (feed conversion rate), feeding results compared with the negative control: +2%
  Weight gain, feeding results compared with the negative control: +2%
[2]
  FCR (feed conversion rate), feeding results compared with the negative control: +5%
  Weight gain, feeding results compared with the negative control: +2%
